Paper PMC6176987, “Correction of cognitive deficits in mouse models of Down syndrome by a pharmacological inhibitor of DYRK1A” (Disease Models & Mechanisms, 2018)

Key:
CDK5/p25 = CDK5/p25 (Homo sapiens, UniProt Q00535); test: Recombinant protein kinase assay, CDK5/p25; format: biochemical; details: 15 µM ATP
PIM1 = PIM1 (Homo sapiens, UniProt P11309); test: Recombinant protein kinase assay, PIM1; format: biochemical; details: 15 µM ATP
CDK9/cyclin T = molecular target: T1, CDK9/cyclin T (Homo sapiens, UniProt P50750); test: Recombinant protein kinase assay, CDK9/cyclin T; format: biochemical; details: 15 µM ATP
T1 construct: made in house; host or cells: insect cells

DYRK1A [1] = molecular target: DYRK1A (Homo sapiens, UniProt Q13627); test: Recombinant protein kinase assay, DYRK1A; format: biochemical; details: 15 µM ATP
DYRK3 = DYRK3 (Homo sapiens, UniProt O43781); test: Recombinant protein kinase assay, DYRK3; format: biochemical; details: 15 µM ATP
CDK2/cyclin A = CDK2/cyclin A (Homo sapiens, UniProt P24941); test: Recombinant protein kinase assay, CDK2/cyclin A; format: biochemical; details: 15 µM ATP
DYRK2 = DYRK2 (Homo sapiens, UniProt Q92630); test: Recombinant protein kinase assay, DYRK2; format: biochemical; details: 15 µM ATP
CK2 = molecular target: T2, CK2 (Homo sapiens, UniProt P68400); test: Recombinant protein kinase assay, CK2; format: biochemical; details: 15 µM ATP
T2 construct: Cochet

Tg(Dyrk1a) mice = test: Novel object recognition (NOR) test in Tg(Dyrk1a) mice; format: in vivo, mouse; details: daily i.p. treatment for 19 days
DYRK1B = DYRK1B (Homo sapiens, UniProt Q9Y463); test: Recombinant protein kinase assay, DYRK1B; format: biochemical; details: 15 µM ATP
CLK1 = CLK1 (Mus musculus, UniProt P22518); test: Recombinant protein kinase assay, CLK1; format: biochemical; details: 15 µM ATP; read-out: IC50 CLK1
CLK4 = CLK4 (Mus musculus, UniProt O35493); test: Recombinant protein kinase assay, CLK4; format: biochemical; details: 15 µM ATP
CLK3 = CLK3 (Mus musculus, UniProt O35492); test: Recombinant protein kinase assay, CLK3; format: biochemical; details: 15 µM ATP; read-out: IC50 CLK3
CLK2 = CLK2 (Mus musculus, UniProt O35491); test: Recombinant protein kinase assay, CLK2; format: biochemical; details: 15 µM ATP; read-out: IC50 CLK2
DYRK1A [2] = molecular target: T3, DYRK1A (Mus musculus, UniProt Q61214); test: Brain DYRK1A catalytic activity after treatment, Tg(Dyrk1a) mice; format: in vivo; details: 19 days of treatment
T3 construct: DYRK1A was purified from brain extracts by immunoprecipitation; from tissue; host or cells: mouse brain (wt, Tg(Dyrk1a), Ts65Dn)
Description: Protein kinase assays to measure the catalytic activity of DYRK1A in the brains of the animals treated with or without drugs were performed as follows: frozen half brains were homogenized in lysis buffer (1.2 ml/half brain) using Precellys® homogenizer tubes. After centrifugation at 2800 g for 2×15 s, 1 mg brain extract was incubated with 2 µg DYRK1A (H00001859 M01, Interchim) or GSK3-β (MBS8508391, Emelca Bioscience, France) antibodies at 4°C for 1 h under gentle rotation. Then, 20 µl protein G agarose beads (Thermo Fisher Scientific, France), previously washed three times with bead buffer (50 mM Tris pH 7.4, 5 mM NaF, 250 mM NaCl, 5 mM EDTA, 5 mM EGTA, 0.1% Nonidet P-40 and protease inhibitor cocktail from Roche, France), were added to the mix and gently rotated at 4°C for 30 min. After a 1 min spin at 10,000 g and removal of the supernatant, the pelleted immune complexes were washed three times with bead buffer, and a last time with Buffer C (60 mM β-glycerophosphate, 30 mM p-nitrophenolphosphate, 25 mM Mops pH 7.2, 5 mM EGTA, 15 mM MgCl2, 2 mM dithiothreitol, 0.1 mM sodium orthovanadate, 1 mM phenylphosphate, protease inhibitor cocktail). DYRK1A or GSK-3 immobilized on beads were assayed in buffer C as described in the Supplementary Materials and Methods with Woodtide ([…]) (1.5 µg/assay) or GSK3-tide ([…]pSED-EEE, where pS stands for phosphorylated serine) as substrates.

DYRK1A [3] = system: DYRK1A; parameters: method as in Khan et al., 2006; Yang et al., 2009; details: ref Khan et al., 2006; Yang et al., 2009; cited from earlier work
vimentin = system: vimentin; parameters: method as in Khan et al., 2006; Yang et al., 2009; details: ref Khan et al., 2006; Yang et al., 2009; cited from earlier work
laminin receptor = molecular target: laminin receptor; parameters: method as in Khan et al., 2006; Yang et al., 2009; details: ref Khan et al., 2006; Yang et al., 2009; cited from earlier work

Sequence of CDK5/p25 (Q00535 whole entry): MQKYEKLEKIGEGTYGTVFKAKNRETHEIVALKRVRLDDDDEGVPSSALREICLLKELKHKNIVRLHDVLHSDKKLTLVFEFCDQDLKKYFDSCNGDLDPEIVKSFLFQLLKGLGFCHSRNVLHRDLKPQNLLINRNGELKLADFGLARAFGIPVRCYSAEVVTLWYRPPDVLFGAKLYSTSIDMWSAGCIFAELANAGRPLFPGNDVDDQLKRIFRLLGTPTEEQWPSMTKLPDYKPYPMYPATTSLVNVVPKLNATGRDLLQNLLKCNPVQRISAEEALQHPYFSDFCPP
Sequence of CDK5/p25 (Q15078 99-307 partner limits assumed): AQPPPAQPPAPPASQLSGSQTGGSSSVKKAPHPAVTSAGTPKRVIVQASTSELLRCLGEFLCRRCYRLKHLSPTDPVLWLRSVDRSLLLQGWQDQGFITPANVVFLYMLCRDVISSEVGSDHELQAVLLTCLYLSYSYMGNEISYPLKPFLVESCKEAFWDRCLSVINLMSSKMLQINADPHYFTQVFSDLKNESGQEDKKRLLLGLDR
Sequence of CLK3 (O35492 whole entry): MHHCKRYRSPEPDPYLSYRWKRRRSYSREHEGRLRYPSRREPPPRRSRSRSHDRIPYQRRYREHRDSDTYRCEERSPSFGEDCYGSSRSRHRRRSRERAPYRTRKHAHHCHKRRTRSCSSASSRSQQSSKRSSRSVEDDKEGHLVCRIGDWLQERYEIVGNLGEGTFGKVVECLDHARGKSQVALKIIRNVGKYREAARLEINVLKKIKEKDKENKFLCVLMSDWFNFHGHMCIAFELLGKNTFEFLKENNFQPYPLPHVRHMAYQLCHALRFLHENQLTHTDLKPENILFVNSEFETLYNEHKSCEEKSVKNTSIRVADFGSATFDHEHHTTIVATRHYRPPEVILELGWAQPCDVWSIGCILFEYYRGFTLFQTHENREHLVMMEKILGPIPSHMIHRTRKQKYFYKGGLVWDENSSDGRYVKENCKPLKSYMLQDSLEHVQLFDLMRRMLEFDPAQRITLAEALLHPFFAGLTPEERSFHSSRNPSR
T1 sequence (P50750 whole entry): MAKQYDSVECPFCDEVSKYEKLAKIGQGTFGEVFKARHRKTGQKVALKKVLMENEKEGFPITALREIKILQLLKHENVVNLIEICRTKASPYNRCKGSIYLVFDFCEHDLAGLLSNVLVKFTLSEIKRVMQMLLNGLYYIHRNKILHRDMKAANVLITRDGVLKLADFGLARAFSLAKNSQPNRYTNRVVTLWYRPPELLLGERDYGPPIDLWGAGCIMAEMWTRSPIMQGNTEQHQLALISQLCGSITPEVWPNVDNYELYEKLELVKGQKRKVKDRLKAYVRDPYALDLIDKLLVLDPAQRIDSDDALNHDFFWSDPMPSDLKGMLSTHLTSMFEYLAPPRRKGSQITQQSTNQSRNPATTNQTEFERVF
T1 sequence (O60563 whole entry partner): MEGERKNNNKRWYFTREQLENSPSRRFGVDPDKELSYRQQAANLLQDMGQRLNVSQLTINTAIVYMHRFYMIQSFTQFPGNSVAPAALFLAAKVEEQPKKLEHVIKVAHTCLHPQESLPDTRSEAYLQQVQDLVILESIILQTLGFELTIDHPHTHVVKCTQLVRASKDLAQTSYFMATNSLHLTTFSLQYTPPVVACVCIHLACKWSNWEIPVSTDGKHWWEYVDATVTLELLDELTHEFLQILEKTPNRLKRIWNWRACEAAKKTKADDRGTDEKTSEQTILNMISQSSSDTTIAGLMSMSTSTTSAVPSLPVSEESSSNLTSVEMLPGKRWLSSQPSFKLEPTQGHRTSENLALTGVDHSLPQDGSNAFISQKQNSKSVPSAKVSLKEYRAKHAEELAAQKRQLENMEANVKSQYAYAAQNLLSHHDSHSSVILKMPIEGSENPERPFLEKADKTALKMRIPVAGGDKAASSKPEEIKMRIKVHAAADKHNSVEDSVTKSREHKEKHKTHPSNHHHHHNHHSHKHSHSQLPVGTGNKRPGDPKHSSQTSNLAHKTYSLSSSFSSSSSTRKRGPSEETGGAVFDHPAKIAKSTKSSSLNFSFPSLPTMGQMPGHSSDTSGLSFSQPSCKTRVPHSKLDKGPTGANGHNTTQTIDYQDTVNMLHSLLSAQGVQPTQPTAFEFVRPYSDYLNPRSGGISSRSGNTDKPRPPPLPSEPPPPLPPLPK
T2 sequence (P68400 whole entry): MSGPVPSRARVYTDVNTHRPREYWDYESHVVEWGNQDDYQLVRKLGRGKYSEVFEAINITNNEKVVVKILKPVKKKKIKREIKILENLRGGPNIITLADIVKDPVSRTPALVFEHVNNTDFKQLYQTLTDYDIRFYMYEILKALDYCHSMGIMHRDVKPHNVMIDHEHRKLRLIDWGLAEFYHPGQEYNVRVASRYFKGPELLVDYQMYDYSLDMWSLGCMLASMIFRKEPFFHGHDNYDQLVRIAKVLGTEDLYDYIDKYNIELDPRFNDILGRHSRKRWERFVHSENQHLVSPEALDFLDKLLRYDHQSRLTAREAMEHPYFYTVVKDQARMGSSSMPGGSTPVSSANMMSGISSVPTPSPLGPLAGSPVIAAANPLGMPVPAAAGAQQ
Sequence of DYRK3 (O43781 whole entry): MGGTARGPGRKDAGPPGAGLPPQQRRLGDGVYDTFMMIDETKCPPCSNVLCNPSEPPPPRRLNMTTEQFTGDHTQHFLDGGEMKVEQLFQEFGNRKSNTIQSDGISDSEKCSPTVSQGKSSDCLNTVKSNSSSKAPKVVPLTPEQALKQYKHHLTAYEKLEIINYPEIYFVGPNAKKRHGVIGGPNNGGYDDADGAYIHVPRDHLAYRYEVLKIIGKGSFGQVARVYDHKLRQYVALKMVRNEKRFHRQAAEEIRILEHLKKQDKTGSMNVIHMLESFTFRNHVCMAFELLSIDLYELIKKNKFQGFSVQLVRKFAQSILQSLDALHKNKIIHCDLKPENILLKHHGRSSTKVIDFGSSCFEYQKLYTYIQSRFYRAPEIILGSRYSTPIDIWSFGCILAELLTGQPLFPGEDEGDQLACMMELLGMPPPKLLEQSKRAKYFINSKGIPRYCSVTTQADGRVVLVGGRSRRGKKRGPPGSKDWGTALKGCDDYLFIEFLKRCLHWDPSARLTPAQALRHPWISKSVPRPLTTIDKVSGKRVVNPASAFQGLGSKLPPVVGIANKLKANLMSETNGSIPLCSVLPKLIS
Sequence of CLK2 (O35491 whole entry): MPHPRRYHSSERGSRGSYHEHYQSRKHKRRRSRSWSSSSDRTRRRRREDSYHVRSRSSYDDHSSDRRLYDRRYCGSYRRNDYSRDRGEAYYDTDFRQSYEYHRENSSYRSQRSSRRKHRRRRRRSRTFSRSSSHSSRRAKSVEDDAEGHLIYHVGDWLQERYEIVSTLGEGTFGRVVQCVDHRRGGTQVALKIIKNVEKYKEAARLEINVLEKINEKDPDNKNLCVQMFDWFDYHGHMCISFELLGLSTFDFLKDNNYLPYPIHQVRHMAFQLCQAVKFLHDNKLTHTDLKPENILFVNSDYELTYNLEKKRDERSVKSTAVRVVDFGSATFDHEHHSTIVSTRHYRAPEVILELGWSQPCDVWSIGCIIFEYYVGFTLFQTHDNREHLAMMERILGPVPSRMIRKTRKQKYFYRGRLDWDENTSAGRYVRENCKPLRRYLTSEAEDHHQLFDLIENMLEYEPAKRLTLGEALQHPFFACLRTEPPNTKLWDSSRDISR
Sequence of DYRK2 (Q92630 whole entry): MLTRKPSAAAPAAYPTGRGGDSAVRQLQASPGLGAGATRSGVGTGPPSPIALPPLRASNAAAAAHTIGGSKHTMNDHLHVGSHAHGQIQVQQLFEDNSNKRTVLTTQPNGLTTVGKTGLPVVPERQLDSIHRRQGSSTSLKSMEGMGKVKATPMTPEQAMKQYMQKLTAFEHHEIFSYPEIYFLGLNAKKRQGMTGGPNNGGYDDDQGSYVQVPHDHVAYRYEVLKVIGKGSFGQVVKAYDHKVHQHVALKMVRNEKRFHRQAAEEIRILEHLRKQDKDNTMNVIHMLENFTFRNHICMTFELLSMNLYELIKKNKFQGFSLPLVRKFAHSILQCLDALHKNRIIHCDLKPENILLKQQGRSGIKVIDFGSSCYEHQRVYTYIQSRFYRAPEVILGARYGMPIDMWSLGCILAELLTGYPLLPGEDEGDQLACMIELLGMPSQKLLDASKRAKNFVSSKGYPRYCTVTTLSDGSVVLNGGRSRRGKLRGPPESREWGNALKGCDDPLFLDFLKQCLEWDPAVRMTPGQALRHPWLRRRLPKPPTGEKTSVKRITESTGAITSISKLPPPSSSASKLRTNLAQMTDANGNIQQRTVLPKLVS
Sequence of DYRK1B (Q9Y463 whole entry): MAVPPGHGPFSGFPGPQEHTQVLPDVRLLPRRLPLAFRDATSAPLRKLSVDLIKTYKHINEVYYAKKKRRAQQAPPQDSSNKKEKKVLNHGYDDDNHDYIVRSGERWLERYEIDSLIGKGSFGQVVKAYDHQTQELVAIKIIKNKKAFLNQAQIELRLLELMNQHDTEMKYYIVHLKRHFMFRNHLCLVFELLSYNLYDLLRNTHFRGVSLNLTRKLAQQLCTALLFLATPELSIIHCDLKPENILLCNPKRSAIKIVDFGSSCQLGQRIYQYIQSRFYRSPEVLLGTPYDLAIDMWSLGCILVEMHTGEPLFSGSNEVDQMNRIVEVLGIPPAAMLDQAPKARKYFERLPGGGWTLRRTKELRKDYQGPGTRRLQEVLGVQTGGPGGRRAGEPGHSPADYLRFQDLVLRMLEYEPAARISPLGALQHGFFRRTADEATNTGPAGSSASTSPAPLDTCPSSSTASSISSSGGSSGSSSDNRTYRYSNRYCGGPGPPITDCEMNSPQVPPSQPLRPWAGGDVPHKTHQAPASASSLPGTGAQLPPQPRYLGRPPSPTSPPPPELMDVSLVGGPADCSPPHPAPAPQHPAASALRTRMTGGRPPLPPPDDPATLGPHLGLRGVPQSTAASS

IC50 (PIM1) [µM]	IC50 (DYRK2) [µM]	IC50 (DYRK1B) [µM]	IC50 (CLK1) [µM]	IC50 (CLK4) [µM]	SMILES	IC50 (CDK5/p25) [µM]	IC50 (CDK9/cyclin T) [µM]	IC50 (DYRK1A [1]) [µM]	IC50 (DYRK3) [µM]	IC50 (CDK2/cyclin A) [µM]	IC50 (CK2) [µM]	Behavioural effect in NOR test (Tg(Dyrk1a) mice)	IC50 (CLK3) [µM]	IC50 (CLK2) [µM]	Tg(Dyrk1a) brain DYRK1A activity (DYRK1A [2])	IC50 (DYRK1A [3]) [µM]	IC50 (vimentin) [µM]	IC50 (laminin receptor) [µM]
0.21	0.015	0.02	0.012	0.012	COc1cc(/C=C2\N=C(Nc3ccc(N4CCN(C)CC4)cc3)NC2=O)ccc1O [L99]	> 10	0.32	0.014	0.01	> 10	> 10	beneficial behavioural effects	0.7	0.03	–	–	–	–
–	–	–	–	–	O=C1NC(Nc2ccccc2)=N/C1=C\c1ccc2c(c1)OCCCO2 [L43]	> 10	> 10	7.4	> 10	> 10	> 10	lack of effects	> 10	> 10	did not reduce	–	–	–
–	–	–	–	–	O=C(O[C@@H]1Cc2c(O)cc(O)cc2O[C@@H]1c1cc(O)c(O)c(O)c1)c1cc(O)c(O)c(O)c1 [EGCG, epigallocatechin gallate]	–	–	–	–	–	–	–	–	–	–	0.33	0.003	0.04
